Data set [1] deals with dihydrotestosterone (DHT). Conditions: cited from earlier work.
The subject of another data set is 5-α-reductase. The conditions noted are these: cited from earlier work.
A short description of data set [2]: In vitro skin permeation, modified Franz-type diffusion cell. The data set is classed as in vitro ADME. The conditions noted are these: human epidermis, receiver compartment, n = 5.
Description: An original Franz-type diffusion cell system was modified to accommodate widened vertical columns and removal of the bowl shape. The diffusion area was 0.636 cm^2 with a receiver capacity of approximately 3.0 mL. The receiver volume for each cell was individually calibrated.
Human epidermis samples were prepared according to standard protocols. […] The samples were used as a membrane between the two chambers in the Franz cells. After about 6-8 hours, fat cells were carefully removed from the full thickness skin. The skin sections were cut into 2.5×2.5 cm squares, sealed in aluminum foil and frozen at −20° C. Prior to preparation, the samples were thawed to room temperature, immersed in 60° C. water, and the epidermis was gently separated from the remaining tissue with forceps and allowed to dry.
Before being mounted on the Franz cell, each epidermal sheet was visually inspected to avoid any possible defects. Additionally, the electrical resistance of isolated epidermis was measured to ensure the integrity of the barrier membrane. Epidermis samples with a resistance above 18 kΩ/cm^3 were used for experiments.
The upper and lower parts of the Franz cell were sealed with paraffin film and fastened together by a clamp. […]
Dutasteride concentration was determined using LC/MS-MS according to the following parameters: […]
[3] abbreviates: after sustained oral administration.

Results on two compounds are retold here after patent publication US11786466B2, “Topical formulations for treating dermatological disorders including male pattern baldness” (XYON HEALTH INC., priority 2017, dated 2023).

As to `C[C@]12C=CC(=O)N[C@@H]1CC[C@@H]1[C@@H]2CC[C@]2(C)[C@@H](C(=O)Nc3cc(C(F)(F)F)ccc3C(F)(F)F)CC[C@@H]12` [Dutasteride], in data set [1] (setting [3]), the “Suppression of DHT production” value is “up to 99%”. In addition, in the data set on 5-α-reductase, the “Inhibition of the three 5-α-reductase isoforms” value is recorded as “inhibits all three 5-α-reductase isoforms”. The “Permeated Amount After 24 hours (dutasteride)” value in data set [2] is “never detected”.
Consider `CC(C)(C)NC(=O)[C@H]1CC[C@H]2[C@@H]3CC[C@H]4NC(=O)C=C[C@]4(C)[C@H]3CC[C@]12C` [Finasteride], for which the “Reduction of serum DHT levels” value in data set [1] (setting [3]) was 65-70%. Moreover, the “Typical reduction in DHT serum concentration” value in data set [1] (oral finasteride therapy, comparison value) is reported as 60-70%. In addition, in the data set on 5-α-reductase, the “Inhibition of Type I 5-α-reductase” value is given as “does not inhibit”; the “Inhibition of Type II and Type III 5-α-reductase” value was “selectively inhibits”.
